# Measurements published in US20050049293A1, “Use of cholinesterase antagonists to treat insulin resistance” (priority 2002, published 2005).
# Where two headings read alike, the source gives them in different places.
# Tests used:
# [1] = tested on: HISS-dependent insulin resistance in sucrose-fed rats; assay: RIST during neostigmine infusion in liquid sucrose-fed rats (Example 3); format: in vivo; conditions: portal vein infusion
# Text: Since both forms of diet produced the same degree of HDIR, the model of sucrose feeding using the liquid diet was used to determine whether this HDIR was reversible with the anticholinesterase agent, neostigmine.
# The model of insulin resistance produced by the 35% liquid sucrose diet (in addition to regular rodent food pellets and normal drinking water) was identical to the protocol described above for the assessment of HDIR in sucrose-fed rats.
# The surgical preparation was identical to that described above for sucrose-fed rats tested for HDIR. In addition, a laparotomy and portal vein cannulation were carried out. […] Following a laporotomy, the portal vein was cannulated.
# After conducting a control RIST, neostigmine was infused into the portal vein for at least […] before a second RIST was conducted to determine if this agent could reverse the insulin resistance. The doses of neostigmine were 1 and 2 μg/kg/min.
# [2] = tested on: atropine-induced HISS-dependent insulin resistance (HDIR); assay: Rapid insulin sensitivity test (RIST) in atropine model of 75% HDIR, reversal with neostigmine (Example 1); conditions: neostigmine 1 μg/kg/min ipv
# [3] = tested on: hepatic muscarinic receptors (insulin resistance); conditions: cats, cited from earlier work
# [4] = control RIST index 94.8±11.2 mg/kg
compound,measurement,setting,value
CN(C)C(=O)Oc1cccc([N+](C)(C)C)c1 [neostigmine],Reversal of insulin resistance at 1 μg/kg/min,[1]; FIG. 3,did not produce a reversal of insulin resistance
same,RIST index during neostigmine 1 μg/kg/min,[1]; [4],80.9 ± 27.3 mg/kg
same,RIST index during neostigmine 2 μg/kg/min,[1]; [4],178.0 ± 17.7 mg/kg
same,RIST index during constant infusion of neostigmine,[2]; after atropine-induced 75% HDIR (blocked state 90.5±[…]),152.6 ± 15.2 mg/kg
same,Reversal of HDIR produced by atropine,[2]; FIG. 1,able to reverse the HDIR
CN1CCN(CC(=O)N2c3ccccc3C(=O)Nc3cccnc32)CC1 [pirenzepine],Dose achieving a similar degree of insulin resistance,[3]; M1 muscarinic selective antagonist,10^−7 mmol/kg
COc1ccccc1CNCCCCCCNCCCCCCCCNCCCCCCNCc1ccccc1OC [methoctramine],Dose achieving a similar degree of insulin resistance,[3]; M2 selective antagonist,10^−6 μmol/kg
